This passage reports melting point results from a melting point compilation (Tetko et al.; mined from patent text by program, amines drawn as free bases though some values may be those of a salt).

A value given as a limit tells only on which side of the number the result lay.

`CC(C(=O)O)c1ccc2c(c1)CC(=O)c1ccccc1S2` (stereo unspecified) had a melting point of 130 to 132 °C.

`CC(C)(C)c1cccc(S(=O)(=O)n2c(Cc3ccc(C(=O)O)cc3)cc3c(Cl)c(Cl)ccc32)c1` showed a melting point of 216 °C.

In turn, `CCOC(=O)CC(C#N)(CC(=O)OCC)c1ccc(OC)cc1` displayed a melting point of 65 to 75 °C.

On to `O=C(O)c1ccc(CF)cc1`, for which the melting point lay within 192 to 194 °C.

Consider `COc1ccc(CN(CCN(C)CCCCNC(=NCCCOc2cccc(CN3CCCCC3)c2)NC#N)c2ccccn2)cc1`, for which the melting point was 106 to 108 °C.

In the case of `Cc1ccc(C(=O)NCCCN(C)CCCNC(=O)c2ccc(C)c3nc4ccccc4nc23)c2nc3ccccc3nc12`, the melting point was in the range of 218 to 220 °C.

Regarding `O=c1[nH]cnc2cscc12`, the melting point fell in the range of 275 to 278 °C.

The compound `CCCc1nc2c(N)nc3cc(Oc4ccccc4N)ccc3c2n1CC(C)C` came in with a melting point of 197 to 199 °C.

The compound `COc1ccc(Cc2nccc3ccccc23)cc1OC` had a melting point of 146 to 147 °C.

On to `COc1ccc(C(C)(C)C)c(O)c1-c1nc2cc(S(=O)(=O)C(F)(F)F)ccc2[nH]1`, for which the melting point lay in the range of 55 to 56 °C.

`CCCCCSc1ncccc1C(=O)NCCCCn1cnc2c(N)nc3ccccc3c21` yielded a melting point of 158 to 161 °C.

`CCCc1cccc2nc3c(=O)[nH][nH]c(=O)c3c(O)c12` registered a melting point of more than 400 °C.

Turning to `O=C(O)C1=Cc2cc(F)c(N3CCC4(C3)OCCCO4)nc2N(c2ccc(F)cc2F)C1`, the melting point lay within 145 to 146 °C.

Compound `Cc1cc(C)cc(OCC(C)O)c1` (stereo unspecified) displayed a melting point of 48.7 to 49.5 °C.

`COc1ccc(C(=O)Nc2ccc(C(C)(C)C(N)=O)cc2)cc1OC`: the melting point fell in the range of 193 to 195 °C.

`COc1ccc2c(c1OCc1ccccc1)CC(C(=O)O)N(C(=O)Cc1c(Cl)cccc1Cl)C2` (racemic) registered a melting point of 205 to 207 °C.

As to `Fc1cccc(CSc2nnc(-c3ccc4occc4c3)o2)c1`, the melting point lay in the range of 112 to 113 °C.

For the compound `CCOC(=O)c1nc(S)n(-c2ccccc2)c1C(=O)OCC`, the melting point lay within 145 to 146 °C.

Consider `CCCCCCCC(=O)NCCCCCCOS(C)(=O)=O`, for which the melting point was in the range of 62 to 63 °C.

In turn, `COc1ccc(OC)c2c1C(=O)C=C(SCCCO)C2=O` gave a melting point of 125 to 126 °C.

For the compound `CC(C)C(=O)CCC(C)C1CCC2C3C=CC4=CC(=O)C5OC5C4(C)C3CCC12C` (stereo unspecified), the melting point lay within 150 to 152 °C.

As to `O=C(COc1ccc(Cl)cc1Cc1cc(Cl)ccc1O)OCc1ccccc1`, the melting point was in the range of 135 to 137 °C.

On to `CNC(=O)c1c(N)cc(Cl)cc1Cl`, for which the melting point was in the range of 159 to 162 °C.

In turn, `CC(C)(C)N1C(=O)c2cnc(CCl)cc2C1=O` yielded a melting point of 62 to 64 °C.

Turning to `O=[N+]([O-])c1c(Cl)cccc1NCC(O)CO` (stereo unspecified), the melting point was determined as 126 °C.

`COc1ccc2c(c1OC)CC(c1ccccc1)CC2=O` (stereo unspecified) displayed a melting point of 127 to 128 °C.

As for `COC(=O)c1ccccc1S(=O)(=O)NC(=O)n1nc(C)n(C2CCCC2)c1=O`, the melting point came out at 146 °C.

`CCCC(=NOCC)C1=C(O)CC(c2c(C)c(C)c(C)c3c2OCC3)CC1=O` (stereo unspecified) yielded a melting point of 108 °C.

`CC1(C)OCC(COS(=O)(=O)c2ccc([N+](=O)[O-])cc2)O1` (stereo unspecified) had a melting point of 92 to 94 °C.

`Fc1ccc(-c2nn3cccnc3c2-c2ccncc2)cc1` came in with a melting point of 194 °C.

The compound `CCOC(=O)COc1cccc(CN2C(=O)C3(COc4cc5c(cc43)CCO5)c3ccccc32)c1` (stereo unspecified) showed a melting point of 45 to 46 °C.

`Cc1c(NC(=O)C(CSC(=O)c2cccs2)Cc2ccccc2)cccc1C(=O)O` (stereo unspecified) displayed a melting point of 164 to 167 °C.

`CC1(c2ccc(O)cc2)C(=O)Nc2cc(Cl)cc(Cl)c2C1=O` (stereo unspecified) returned a melting point of 222 to 223 °C.

With `CCCc1c(C(C)C)nc(C(C)C)c(CO)c1-c1ccc(F)cc1O`, the melting point fell in the range of 138 to 141 °C.

Take `CCCCCCOC(=O)C(=O)Nc1cc(C#N)cc(NC(=O)C(=O)OCCCCCC)c1Cl`: the melting point was in the range of 82 to 84 °C.

The compound `C[C@]1(CN2CCC(NCCc3ccc(C(F)(F)F)cc3)CC2)Cn2cc([N+](=O)[O-])nc2O1` gave a melting point of 80.7 to 84.2 °C.

`Cc1cc(-c2ccccc2)nc(-c2cccc([N+](=O)[O-])c2)c1C(=O)O` gave a melting point of 191 to 192 °C.

Take `COc1ccc(-c2c(C)c(NC(=O)CC(C)(C)C)c(C)c3c2OCC3c2ccc(C(C)C)cc2)cc1` (stereo unspecified): the melting point is 129 to 131 °C.

Regarding `O=C(NCC1CCCO1)c1c[nH]c2ccccc2c1=O` (stereo unspecified), the melting point was 205 to 209 °C.

Compound `CCc1nn2c(N3CCNCC3)cc(C)nc2c1S(=O)(=O)c1ccccc1` gave a melting point of 150 to 151 °C.

`CCc1cc(=O)c2nc(OCC[Si](C)(C)C)ccc2[nH]1`: the melting point is 193 °C.

As to `CCC(C)(C(=O)c1ccc(N2CCOCC2)cc1)N1CCOCC1` (stereo unspecified), the melting point lay in the range of 111 to 114 °C.

As for `CC1(C)NC(=O)N(CSc2cc(C(C)(C)C)c(O)c(C(C)(C)C)c2)C1=O`, the melting point fell in the range of 160 to 162 °C.

On to `ON=c1c2nccc3cccc(c32)n2cccc12`, for which the melting point is 254 °C.

`C=Cc1ccc(CSCCNC(=O)COCC(=O)O)cc1` had a melting point of 44.5 to 46 °C.

For `O=C(CNC(=O)c1cccc(-c2cccc3oc(Cc4cccc(C(F)(F)F)c4)cc23)c1)NCCO`, the melting point lay within 89 to 94 °C.

Compound `O=C1Nc2cccnc2N(C(=O)Cl)c2ccccc21` gave a melting point of 239 to 240 °C.

`c1coc(C2=Nc3ccccc3N3CCc4cccc2c43)c1` displayed a melting point of 144 to 146 °C.

In turn, `CCCc1nc(-n2c(C)ccc2C)c(C(=O)OC)[nH]1` yielded a melting point of 175 to 176 °C.

`CCCCCNC12CN3CN(CN(C3)C1)C2` displayed a melting point of 119 to 120 °C.

For the compound `O=C(O)Cc1ccc(CCOc2ccc(CC3SC(=O)NC3=O)cc2)nc1` (stereo unspecified), the melting point was in the range of 144 to 145 °C.

`Cc1ccc2c(c1)c(=O)c1c(cnn1C)n2-c1cccc(I)c1` came in with a melting point of 123 °C.

Regarding `NS(=O)(=O)c1cc(NC(=O)c2cnn3c(C(F)(F)F)cc(-c4ccc(C(F)(F)F)cc4)nc23)c(Cl)s1`, the melting point is 275 °C.

Consider `CCOC(=O)C(N=C(c1ccccc1)c1cc(Cl)ccc1NC)C(=O)OCC`, for which the melting point worked out at 88 °C.

Consider `C(=C\c1nc(COc2ccc(CCCCn3ccnc3)cc2)co1)/c1ccccc1`, for which the melting point is 103 to 104 °C.

The compound `CC(C)Oc1nc(-n2cccn2)nc(Cl)c1-c1c(F)cc(F)cc1F` yielded a melting point of 106 to 107 °C.

In the case of `COC(=O)C(=Cc1cc(OC)c(OC)cc1Br)c1ccccc1C(=O)O`, the melting point lay within 129 to 130 °C.

In turn, `O=c1c2cc(Cl)ccc2nc2n1CCN2Cc1ccccc1Cl` had a melting point of 173 to 174 °C.

The compound `COC(=O)c1ccc(CN(C2CCCCC2C)S(=O)(=O)c2ccc(Cl)cc2)cc1` (stereo unspecified) yielded a melting point of 93 to 95 °C.

The compound `O=c1[nH]c2cc(S(=O)c3cccc4cnccc34)c([N+](=O)[O-])cc2s1` (stereo unspecified) returned a melting point of more than 270 °C.

`O=C(Nc1cccc2[nH]ccc12)C1(OCC2CO2)C=C(Cl)C=CC1` (stereo unspecified) showed a melting point of 175 °C.

`CCCC(Cc1ccc(OCc2ccccc2)cc1)C(=O)O` (stereo unspecified) gave a melting point of 83 to 85 °C.

`NC(=O)c1ccc(C(N)=O)c(CC(O)CO)c1` (stereo unspecified) returned a melting point of 194 °C.

The compound `Cc1nc(N2C[C@@H](C)C[C@H](C)C2)c2nc(-c3ccccc3)cc-2[nH]1` (relative stereo) came in with a melting point of 226 to 227 °C.

Take `CC(=O)OC1CSC(Oc2cccc(-c3ccc(C#N)nc3)c2)C(OC(C)=O)C1OC(C)=O` (stereo unspecified): the melting point came to 130 °C.

Regarding `COC(=O)c1cc(NC=O)c2cc(Cc3ccc(F)cc3)cnc2c1O`, the melting point was 217 to 219 °C.

`CCCC1(C(C)C)NC(=S)N(c2cc(Cl)cc(Cl)c2)C1=O` (stereo unspecified) displayed a melting point of 160 °C.

Consider `Cc1ccccc1C(CCC(=O)O)Oc1cc(OCc2ccsc2)ccc1C(=O)NC(Cc1ccccc1)C(=O)O` (stereo unspecified), for which the melting point lay in the range of 178 to 180 °C.

Consider `CS(=O)(=O)c1ccc(-n2nc(C(F)F)cc2-c2nc3ccc(F)cc3s2)cc1`, for which the melting point was in the range of 204 to 206 °C.

Take `CC(C)N1CCC2(CC1)CSC1=C(O2)c2ccccc2C(=O)C1=O`: the melting point lay in the range of 197 to 198 °C.

Compound `CCOC(=O)CCc1c(O)ccc2ccc(OCC(=O)OCC)cc12` returned a melting point of 112 to 113 °C.

`O=C(O)c1ccc(-c2coc3ccccc23)cc1` displayed a melting point of 222 to 225 °C.

Consider `Cc1ccc(S(=O)(=O)NC(C)(C)CO)cc1NC(=O)c1cnn2c(C(F)(F)F)cc(-c3ccc(C(F)(F)F)cc3)nc12`, for which the melting point came to 240 °C.

In turn, `CCCCCCCCCCCc1ncc(C(=O)O)s1` registered a melting point of 93 °C.

Take `COc1ccc(Cn2c3ccc(Cl)cc3c3c(C(=O)Nc4c(Cl)cncc4Cl)ccc(OC)c32)cc1`: the melting point lay within 257 to 258 °C.

Compound `CCCOc1ccc(S(=O)(=O)Nc2ccc3[nH]ncc3c2)cc1-c1nc2cc3nc[nH]c3cc2c(=O)[nH]1` returned a melting point of 261 to 263 °C.

With `CN(C)C1(c2ccccc2)CCC(NC(=S)NCCCc2ccccc2)CC1` (stereo unspecified), the melting point lay within 75 to 80 °C.

`C#CCOc1ccc(OC)cc1-c1nc2ncccc2[nH]1` displayed a melting point of 220 °C.

On to `COc1cc(OCCOc2ccc3ccccc3c2)cc(OC)c1C(=O)C(=O)O`, for which the melting point was 154 °C.

`CC(C)(C)CN1C(=O)[C@@H](CC(=O)Nc2cccc(-c3nnn[nH]3)c2)O[C@H](c2ccccc2Cl)c2cc(Cl)ccc21` (relative stereo) registered a melting point of 218 to 220 °C.

In the case of `CC#CCOc1ccc(S(=O)(=O)N(C)CCC(=O)O)cc1`, the melting point lay in the range of 90 to 110 °C.

Regarding `CC(C)(C)CC(C)(C)Nc1nc(N2CC3CCC(CC3)C2)nc(C(C)(C)C)n1`, the melting point was 164 to 168 °C.

`Cn1cnc([N+](=O)[O-])c1NCCN1CCC(Nc2nc3cccnc3n2Cc2ccc(F)cc2)CC1`: the melting point worked out at 199 °C.

In turn, `CC1(C(=O)O)CCC2(C)CCC3(C)C(=CCC4C5(C)CCC(O)C(C)(C)C5CCC43C)C2C1` (stereo unspecified) registered a melting point of 329 to 331 °C.

For the compound `CCCCCCCCCCC=CCc1c[nH]c(C(=O)NN)c1`, the melting point was in the range of 130 to 132 °C.

The compound `COc1ccc(S(=O)(=O)N2C(=O)C(c3ccccc3OC)(N3CCC[C@H]3C(=O)N3CCC3)c3cc(Cl)ccc32)c(OC)c1` (stereo partly specified) came in with a melting point of 161 to 166 °C.
